In US11020378B2, “Compounds, compositions and methods for treating insulin resistance” (UNIVERSITE PARIS DESCARTES, priority 2017, dated 2021):

Columns and labels:
[1] = molecular target: T1, IR-Grb14 interaction (Homo sapiens, UniProt P06213); experiment: IR-Luc/Grb14-YFP BRET technique in a cell-free system; assay type: binding
T1 construct: a vector encoding the insulin receptor fused to the luciferase (IR-Luc); made in house; host or cells: HEK293T (transfected); IR-Luc was partially purified on wheat germ lectin sepharose; Grb14-YFP was used as crude lysate
T1 sequence (P06213 763-1382 limits assumed): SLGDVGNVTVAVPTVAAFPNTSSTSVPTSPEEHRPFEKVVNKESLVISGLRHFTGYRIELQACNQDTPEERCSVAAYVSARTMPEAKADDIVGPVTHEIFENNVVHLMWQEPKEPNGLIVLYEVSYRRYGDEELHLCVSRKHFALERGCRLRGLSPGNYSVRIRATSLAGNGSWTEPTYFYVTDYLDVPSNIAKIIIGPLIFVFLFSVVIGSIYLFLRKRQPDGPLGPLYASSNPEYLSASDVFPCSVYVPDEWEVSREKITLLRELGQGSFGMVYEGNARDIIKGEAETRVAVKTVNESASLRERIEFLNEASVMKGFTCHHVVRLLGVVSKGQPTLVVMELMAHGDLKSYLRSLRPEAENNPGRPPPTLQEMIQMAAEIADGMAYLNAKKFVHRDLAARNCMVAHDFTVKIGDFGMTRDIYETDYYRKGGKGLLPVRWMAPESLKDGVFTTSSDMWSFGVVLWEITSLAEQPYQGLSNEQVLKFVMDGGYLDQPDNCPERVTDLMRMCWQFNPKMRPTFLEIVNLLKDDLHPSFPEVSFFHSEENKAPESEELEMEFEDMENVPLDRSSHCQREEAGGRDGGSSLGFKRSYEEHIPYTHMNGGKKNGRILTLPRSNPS
T1 sequence (P06213 28-758 partner limits assumed): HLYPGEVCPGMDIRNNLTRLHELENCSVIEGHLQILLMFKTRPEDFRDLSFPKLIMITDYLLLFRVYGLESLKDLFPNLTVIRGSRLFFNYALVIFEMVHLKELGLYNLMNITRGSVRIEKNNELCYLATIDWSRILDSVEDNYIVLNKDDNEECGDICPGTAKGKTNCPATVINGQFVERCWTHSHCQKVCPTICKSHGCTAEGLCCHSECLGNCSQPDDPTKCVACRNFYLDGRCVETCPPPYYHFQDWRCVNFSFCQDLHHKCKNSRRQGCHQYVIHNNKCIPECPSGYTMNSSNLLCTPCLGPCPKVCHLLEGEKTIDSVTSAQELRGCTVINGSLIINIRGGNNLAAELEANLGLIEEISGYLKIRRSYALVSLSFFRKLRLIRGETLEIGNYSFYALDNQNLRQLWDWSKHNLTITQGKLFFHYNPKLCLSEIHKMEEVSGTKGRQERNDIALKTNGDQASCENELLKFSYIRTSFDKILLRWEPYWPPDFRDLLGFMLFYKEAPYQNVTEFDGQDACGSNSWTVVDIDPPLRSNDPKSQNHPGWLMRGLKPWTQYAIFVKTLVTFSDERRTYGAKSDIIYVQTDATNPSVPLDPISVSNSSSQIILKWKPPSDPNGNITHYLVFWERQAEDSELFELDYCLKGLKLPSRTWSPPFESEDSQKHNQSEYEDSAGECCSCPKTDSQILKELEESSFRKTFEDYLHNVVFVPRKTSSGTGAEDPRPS
Description: Compounds according to the invention were experimentally assessed for their inhibitory effect on the IR-Grb14 interaction by a BRET technique in a cell-free system described briefly below.
On the one hand, HEK293T cells were transfected with a vector encoding the insulin receptor fused to the luciferase (IR-Luc). Before lysis, the cells transfected with IR-Luc were stimulated or not with 100 nM insulin for 10 minutes. The IR-Luc lysates were recovered and then purified on sepharose beads coupled with wheat germ lectin (WGL for Wheat Germ Lectin). The IR-Luc receptors were then eluted and then frozen in liquid nitrogen before being stored at −80° C. On the other hand, HEK293T cells were transfected either with a vector encoding the Grb14 protein fused to the YFP (Grb14-YFP), or with the empty plasmid pcDNA3. The cells transfected with Grb14-YFP or with the empty plasmid pcDNA3 were lysed 48 h after transfection. After centrifugation, the lysates are recovered and frozen at −80° C.
The insulin receptors (IR-Luc) partially purified from cells stimulated or not with insulin were incubated for 20 minutes with the inhibitor compounds according to the invention suspended in DMSO. The cellular extracts from cells transfected with Grb14-YFP (or the empty plasmid pcDNA3) were then added and then after 40 minutes of incubation, coelenterazine was added and BRET reading was initiated. The results are expressed as a percentage of the BRET signal obtained in the presence of the molecules tested compared to the BRET signal of the DMSO control.

[2] = tested on: PI3K/Akt pathway; experiment: Luc-Akt-PH/YFP-membrane BRET in MCF7 line; assay type: cell-based; conditions: 50 μM, MCF7 cells
Description: FIG. 5A and FIG. 5B, the effect of the compound of Formula (Ia) according to the invention (black bars) on the activation of the PI3K/Akt pathway measured by the Luc-Akt-PH/YFP-membrane BRET technique compared to the DMSO (Dimethylsulfoxide) control (white bars) as measured on (FIG. 5A) HEK293T cells pre-incubated or not for 1 h with tyrosine kinase inhibitor AG1024 at a concentration of 25 μM final or on (FIG. 5B) an MCF7 line doubly and stably transfected with the vectors encoding Luc-Akt-PH and YFP-membrane. The results, expressed as BRET delta, are the average of 3 to 8 independent experiments (**p<0.01, ***p<0.001, by Newman-Keuls multiple comparison test).
To measure the activity of the PI3-kinase pathway by the BRET technique, HEK293T cells are transfected with plasmids allowing, on the one hand, the expression of the PH (Pleckstrin Homology) domain of the Akt protein which has been fused to the luciferase and, on the other hand, a membrane-addressing sequence which has been fused to the YFP protein. When the PH domain of Akt is recruited to the membrane by the PIP3s, an energy transfer between the luciferase that is coupled to the PH domain of Akt and the membrane YFP protein takes place. The measured BRET signal is a control of the production of PIP3s at the membrane and is a reflection of the activation of the PI-3-kinase/Akt pathway in real time on cells. […]

[3] = tested on: SREBP-1c, ACC, FAS and SCD1 expression; experiment: Expression of lipogenesis genes in hepatocytes in primary culture (RT-qPCR); assay type: cell-based, mouse; conditions: condition G25i (25 mM glucose, 10 nM insulin), 24 h
Description: FIG. 7, the effect of the compound of Formula (Ia) according to the invention (black bars) on the expression of insulin target genes, SREBP-1c, ACC, FAS, and SCD1 (FIGS. 7A-D, respectively) involved in the lipogenesis pathway. Hepatocytes in primary culture are cultured in the presence of 5 mM glucose (G5) or 25 mM glucose (G25) and 10 nM insulin for 24 h. The relative quantification of mRNAs is performed by RT-qPCR. The values are related to the quantification of the 18S gene in the same sample in order to normalize the results. The results are the average of 3 to 5 independent experiments (*p<0.05 by Anova followed by a Newman-Keuls test).
Briefly, mouse hepatocytes in primary culture are cultured in the presence of 5 mM glucose (G5) or 25 mM glucose (G25), and 10 nM insulin for 24 h. The relative quantification of mRNAs is performed by RT-qPCR and the values are related to the quantification of the 18S gene from the same sample in order to normalize the results.

In the case of `Cc1ccc(/C=C/C(=O)Nc2ccc(S(=O)(=O)Nc3onc(C)c3C)cc2)o1` [Ia], the remaining activity at 50 µM ([1]; 50 μM, insulin stimulation (100 nM), read-out: % BRET signal/DMSO control) is reported as 39%, the “decrease in the BRET signal between the insulin receptor and the Grb14 protein” value ([1]; 50 μM, with insulin stimulation) is reported as 60% and the “decrease in the BRET signal” value ([1]; in the absence of stimulation with insulin) is reported as 50%. The “effect on the production of PIP3s at the membrane” value ([2]; absence of insulin) was “no effect”, the “effect on the production of PIP3s at the membrane” value ([2]; presence of 100 nM insulin) was “no effect” and the “increase of the effect of insulin on the expression of ACC” value [3] was “about 60%”. The “increase of the effect of insulin on the expression of FAS” value [3] was “about 60%”, the “increase of the effect of insulin on the expression of SCD1” value [3] was “about 60%” and the “increase of the effect of insulin on the expression of SREBP-1c” value [3] was “about 60%”.
